Data set [1] has as its system Tobacco (Nicotiana tabacum var. Petit Havana) leaf discs. Description: Selection of bombarded tobacco leaf discs on RMOP selection medium (chloroplast transformation with pLD-BADH). Type of data set: cell-based. Particulars: for time until resistant clones formed green shoots: after initiation of selection; for leaf discs responded / resistant shoots per responding leaf disk: bombarded leaf discs under selection; for average resistant shoots per plate: spectinomycin after 45 days; for resistant shoots regenerated overall: ten bombardments (spectinomycin), six bombardments (betaine aldehyde). An excerpt:
Expression cassettes of the chloroplast integration vector contain the chimeric aadA gene and the BADH gene driven by the constitutive 16S rRNA promoter and regulated by the 3′ untranslated region of the plastid psbA gene. The chimeric aadA gene encoding aminoglycoside 3′ adenyltransferase confers spectinomycin resistance in chloroplasts enabling selection of the transformants on spectinomycin dihydrochloride. On the other hand, BADH converts the toxic betaine aldehyde in cells to glycine betaine. When present, this pathway is compartmentalized within chloroplasts (Nuccio, et al. 1999). To facilitate translation of the dicistronic mRNA, independent Shine-Dalgarno (SD) sequences were provided to the aadA and BADH genes upstream of the initiation codons. In order to accurately compare transformation efficiency of both selectable markers under identical bombardment and transformation conditions, aadA and BADH genes were inserted into the same vector, at the same site. Bombarded leaves were treated in identical manner except the addition of selection reagent.
Tobacco (Nicotiana tabacum var. Petit Havana) was grown aseptically by germination of seeds in MSO medium. This medium contains MS salts (4.3 g/liter), B5 vitamin mixture (myoinositol, 100 mg/liter; thiamine-HCl, 10 mg/liter; nicotinic acid, 1 mg/liter; pyridoxine-HCl, 1 mg/liter), sucrose (30 g/liter) and phytagar (6 g/liter) at pH 5.8. Fully expanded, dark green leaves of about two month old plants were used for bombardment.
(§1) Leaves were placed abaxial side up on Whatman No. 1 filter papers laying on the RMOP medium (Daniell 1993) in standard petri plates (100×15 mm) for bombardment. Microprojectiles were coated with plasmid DNA (pLD-BADH) and bombardments were carried out with the biolistic device PDS 1000/He (Bio-Rad) as described by Daniell (1997). Following bombardment, petri plates were sealed with parafilm and incubated at 24° C. under 16 hour photoperiod. Two days after bombardment, leaves were chopped into small pieces of ˜5 mm^2 in size and placed on the selection medium (RMOP containing 500 μg/ml of spectinomycin dihydrochloride or 5-10 mM betaine aldehyde) with abaxial side touching the medium in deep (100×25 mm) petri plates. The regenerated resistant shoots were chopped into small pieces (˜2 mm^2) and subcloned into fresh deep petri plates containing the same selection medium. Resistant shoots from the second culture cycle were transferred to the rooting medium (MSO medium supplemented with IBA, 1 mg/liter containing appropriate selectable marker). Rooted plants were transferred to soil and grown at 26° C. under 16 hour photoperiod.
(§2) The entire process of regeneration, starting from bombardment until transfer to soil, takes about 3-6 months for spectinomycin selection and 2-3 months for betaine aldehyde selection. FIG. 3 and Table 1 show differences between the two selection processes. […] Leaf disks in FIG. 3 under betaine aldehyde selection appear partially green because they were photographed 12 days after the initiation of the selection process whereas the disc photographed on spectinomycin were 45 days after initiation of the selection process. In spite of the short period of selection one leaf disk was almost bleached (FIG. 3D) and all of them were killed after 30 days. Under 10 mM betaine aldehyde selection, control untransformed samples were killed (turned black, 3G-1) whereas transgenic leaves produced new shoots (FIG. 3G, 2-4).
When the leaf discs were selected for spectinomycin resistance, only 15% of the discs responded and an average of one resistant shoot per plate was observed after 45 days. From each callus, all resistant shoots are considered to represent an individual clone. Under betaine aldehyde selection 80% of the discs responded and an average of 25 resistant shoots per plate was observed. […]

Data set [2] has as its system untransformed N. tabacum Petit Havana leaf discs. The experiment in a line: Toxicity of the selection agent to untransformed control leaf discs. Type of data set: cell-based, Nicotiana tabacum. Particulars: for effect on leaf discs under selection: RMOP selection medium.
Description: A. N. tabacum Petit Havana control in RMOP medium containing spectinomycin after 45 days. B. Bombarded leaf discs selected on spectinomycin in RMOP medium after 45 days. C. Spectinomycin resistant clones cultured again ([…]) to obtain homoplasmy. D. Petit Havana control in RMOP medium containing betaine aldehyde after 12 days of culture. E. Bombarded leaf discs selected on betaine aldehyde in RMOP medium after 12 days of culture; arrow indicates unbombarded leaf disc as control. Note that 23 shoots are formed on a disc selected on betain aldehyde against 1-2 shoots per disc on spectinomycin. F. Betaine aldehyde resistant clones cultured again (second round) to obtain homoplasmy. G. Selection on 10 mM betaine aldehyde of untransformed (1) and transgenic (2-4) leaf discs.
as §1, §2

In data set [3] the test system is resistant tobacco clones. The experiment in a line: PCR screening of resistant clones for chloroplast integration. Also noted: species or system Nicotiana tabacum. An excerpt: Integration of a foreign gene into the chloroplast genome was confirmed by PCR screening of chloroplast transformants (FIG. 4). Primers were designed to eliminate mutants, nuclear integration and to determine whether the integration of foreign genes had occurred in the chloroplast genome at the directed site by homologous recombination. The strategy to distinguish between nuclear and chloroplast transgenic plants was to land one primer (3P) on the native chloroplast genome adjacent to the point of integration and the second primer (3M) on the aadA gene (FIG. 1). This primer set generated 1.6 kb PCR product in chloroplast transformants (FIG. 4). Because this product cannot be obtained in nuclear transgenic plants, the possibility of nuclear integration can be eliminated. […] The rest of the resistant shoots may be either escapes or nuclear transformants. […] In contrast, nearly 60% of the spectinomycin resistant clones were mutants. Other labs have recently reported as high as 90% mutants among spectinomycin resistant clones (Eibl et al. 1999; Sidorov et al. 1999).

For data set [4], the system named is tobacco seeds. The experiment in a line: Seed germination on medium containing the selection agent. The class given is in vivo, Nicotiana tabacum. An excerpt:
Lack of pleiotropic effects. […] They grew normally, flowered and set seeds. […] […] This may be due to the presence of an active endogenous BADH or similar enzymatic activity in non-green plastids during germination.

For data set [5], the system named is resistant tobacco clones. Conditions: Eibl et al. 1999; Sidorov et al. 1999; cited from earlier work.

“Also recorded” adds a separate entry of the source. Structures can show the parent of a compound that is named as a salt.

On to `C[N+](C)(C)CC=O` [betaine aldehyde], for which, in data set [1], the “entire process of regeneration, bombardment until transfer to soil” value is 2-3 months; the “time until resistant clones formed green shoots” value is given as not above 12 days; the leaf discs responded came out at 80%; the “resistant shoots per responding leaf disk” value is not above 23. Further, in data set [1], the “average resistant shoots per plate” value is reported as 25 and the “resistant shoots regenerated overall” value was “more than 150”. In addition, the “efficiency of transformation relative to spectinomycin selection” value in data set [1] (betaine aldehyde vs spectinomycin selection) is 25 fold. Moreover, the “resistant shoots per responding leaf disk” value in data set [1] (listed as betain aldehyde) came to 23. Further, the “effect on untransformed leaf discs” value in data set [2] (10 mM betaine aldehyde) is listed as “death of untransformed leaf disc; also recorded: killed”. Moreover, the “time after which all control leaf disks were killed” value in data set [2] (Petit Havana control in RMOP with betaine aldehyde) is 30 days. In data set [2], the “effect on leaf discs under selection” value was “growth of the leaf discs was completely inhibited and photosynthetic pigments were degraded”. The “resistant clones with foreign genes integrated into the chloroplast genome (PCR)” value in data set [3] (after the first culture cycle) is on record as 11 out of 15. For the same compound, in data set [4] (betaine aldehyde 10-15 mM), the “germination of untransformed seeds” value was “germinated”.
For the compound `CN[C@@H]1[C@H](O)[C@H](NC)[C@H]2O[C@@]3(O)C(=O)C[C@@H](C)O[C@H]3O[C@@H]2[C@H]1O` [Spectinomycin, spectinomycin dihydrochloride], in data set [1], the “entire process of regeneration, bombardment until transfer to soil” value is reported as 3-6 months; the “time until resistant clones formed green shoots” value was “about 45 days”; the leaf discs responded was 15%; the “average resistant shoots per plate” value is listed as “one”. Also, the “resistant shoots regenerated overall” value in data set [1] amounted to 10. Besides, the “effect on leaf discs under selection” value in data set [2] is “leaf discs continued to grow but pigments were bleached”. Moreover, the “mutants among resistant clones” value in data set [3] (applicant's clones) is approximately 60%. Besides, the “germination of seeds from chloroplast transgenic plants” value in data set [4] (MS medium, 500 μg/ml spectinomycin) is “germinated and grew normally”. Also, in data set [5], the “mutants among resistant clones, other labs” value was not above 90%.

The record behind these values is patent US20110072541A1, “MARKER FREE TRANSGENIC PLANTS ENGINEERING THE CHLOROPLAST GENOME WITHOUT THE USE OF ANTIBIOTIC SELECTION” (priority 2000, published 2011).
